# Key:
# SET protein = SET protein (Homo sapiens, UniProt Q01105); assay: Binding assay on cellulose-bound overlapping PP2Ac peptides incubated with SET protein; settings: four overlapping dodecapeptides, anti-SET antibody, ECL detection
# Protocol: (§1) FIG. 1A and 1B show determination of the binding site of PP2A to SET and vice versa. A) Overlapping dodecapeptides with two amino acid shift covering the whole PP2A protein were bound to a solid support. The membrane was incubated sequentially with SET protein, and anti-SET antibody, followed by a peroxidase-labeled secondary antibody. […] The sequence corresponding to the identified spots is shown. B) Overlapping dodecapeptides with two amino acid shift covering the whole human SET protein were bound to a solid support. The membrane was incubated sequentially with PP2A protein, and anti-PP2A antibody, followed by a peroxidase-labeled secondary antibody. […] The sequence corresponding to the identified spots is shown.
# (§2) Overlapping peptides covering the whole human PP2Ac or SET sequence were prepared by automated spot synthesis (Abimed, Langerfeld, Germany) onto an amino-derived cellulose membrane, as described (Frank and Overwin, 1996; Gausepohl et al. 1992). The membranes were blocked, incubated with purified recombinant SET or PP2A protein, after several washing steps, incubated with anti-SET2 (Bethyl Laboratories) or anti-PP2Ac antibody (Santa Cruz), and followed by PO-conjugated secondary antibody. Protein interactions were visualized using ECL system (Pierce). […]
# PP2Ac protein = PP2Ac protein (Homo sapiens, UniProt P67775); assay: Binding assay on cellulose-bound overlapping SET peptides incubated with PP2A protein; settings: six overlapping dodecapeptides, anti-PP2Ac antibody, ECL detection
# PP2Ac protein, sequence (P67775 whole entry): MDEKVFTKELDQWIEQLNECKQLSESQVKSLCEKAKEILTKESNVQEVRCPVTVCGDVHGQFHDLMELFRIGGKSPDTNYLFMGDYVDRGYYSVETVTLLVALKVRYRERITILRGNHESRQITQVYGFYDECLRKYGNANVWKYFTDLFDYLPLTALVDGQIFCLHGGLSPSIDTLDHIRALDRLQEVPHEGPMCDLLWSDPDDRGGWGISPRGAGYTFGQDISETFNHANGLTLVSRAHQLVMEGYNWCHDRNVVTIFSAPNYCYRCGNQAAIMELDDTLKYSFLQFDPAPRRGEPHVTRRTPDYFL
# Protocol: as §1, §2
# Daudi cell line = assay: Detection of apoptosis by Annexin-V-FITC staining, Daudi; assay type: cell-based, Human; settings: Daudi cells, peptide 100 μM for 24 h, compared to control non treated cells
# Protocol: (§3) Daudi, Raji and Jok 1 cell lines were cultured in the presence or in the absence (control) of the Mut3DPT-PP2A peptide at a concentration of 100 μM for 24 h. Apoptosis was detected by Annexin V-FITC staining and analyzed by flow cytometry. Mut3-DPT-PP2A is VKKKKIKAEIKI-ETVTLLVALKVRYRERIT (SEQ ID NO: 32).
# (§4) Human B lymphoblast Daudi cell line, human lymphoblast-like Raji cell line and a Hairy cell leukemia-derived cell line Jok1 were cultured in DMEM (Gibco Life technologies) medium supplemented with 10% FCS.
# (§5) Apopotic cells were detected using Annexin-V (-FITC from BD biosciences) as described above.
# (§6) The effect of Mut3DPT-PP2Ac peptide treatment was compared to untreated cells. The peptides were used at 100 μM for 24 h.
# Raji cell line = assay: Detection of apoptosis by Annexin-V-FITC staining, Raji; assay type: cell-based, Human; settings: Raji cells, peptide 100 μM for 24 h, compared to control non treated cells
# Protocol: as §3, §4, §5, §6
# Jok1 cell line = assay: Detection of apoptosis by Annexin-V-FITC staining, Jok1; assay type: cell-based, Human; settings: Jok1 cells, peptide 100 μM for 24 h, compared to control non treated cells
# Protocol: as §3, §4, §5, §6
# H1299 cell line = assay: Detection of apoptosis by Annexin-V-FITC staining, H1299; assay type: cell-based, Human; settings: H1299 cells, peptide 100 μM for 24 h, compared to control non treated cells
# Protocol: (§7) H1975 and H1299 cell lines were cultured in the presence or in the absence (control) of the Mut3DPT-PP2Ac peptide at a concentration of 100 μM for 24 h. Apoptosis was detected by Annexin V-FITC staining and analyzed by flow cytometry. Mut3-DPT-PP2A is VKKKKIKAEIKI-ETVTLLVALKVRYRERIT (SEQ ID NO: 32).
# (§8) Human non small cell lung carcinoma cell lines H1975 and H1299, as well as breast cancer cell line MDA-MB231 were cultured in DMEM (Gibco Life technologies) medium supplemented with 10% FCS.
# (§9) Apopotic cells were detected using Annexin-V (-FITC from BD biosciences) as described by the manufacturer. Briefly, the cells were washed in lx binding buffer, centrifugated and then resuspended in 200 μL of 1× binding buffer containing Annexin V-FITC and propidium iodide (PI). After incubation at room temperature in the dark for 10 min, cells were analyzed with FACS Calibur cytofluometer (BD Biosciences).
# (§10) The effect of peptides treatment was compared to untreated cells. The peptides were used at 100 μM for 24 h.
# H1975 cell line = assay: Detection of apoptosis by Annexin-V-FITC staining, H1975; assay type: cell-based, Human; settings: H1975 cells, peptide 100 μM for 24 h, compared to control non treated cells
# Protocol: as §7, §8, §9, §10
# MDA-MB231 cell line = assay: Detection of apoptosis by Annexin-V-FITC staining, MDA-MB231; assay type: cell-based, Human; settings: MDA-MB231 cells, peptide 100 μM for 24 h, compared to control non treated cells
# Protocol: MDA-MB231 cell line was cultured in the presence or in the absence (control) of the Mut3DPT-SET peptide at a concentration of 100 μM for 24 h. Apoptosis was detected by Annexin V-FITC staining and analyzed by flow cytometry. Mut3-DPT-SET is VKKKKIKAEIKI-[…] (SEQ ID NO: 33).
# as §8, §9, §10
# SET protein, sequence (Q01105 1-277 isoform Q01105-2): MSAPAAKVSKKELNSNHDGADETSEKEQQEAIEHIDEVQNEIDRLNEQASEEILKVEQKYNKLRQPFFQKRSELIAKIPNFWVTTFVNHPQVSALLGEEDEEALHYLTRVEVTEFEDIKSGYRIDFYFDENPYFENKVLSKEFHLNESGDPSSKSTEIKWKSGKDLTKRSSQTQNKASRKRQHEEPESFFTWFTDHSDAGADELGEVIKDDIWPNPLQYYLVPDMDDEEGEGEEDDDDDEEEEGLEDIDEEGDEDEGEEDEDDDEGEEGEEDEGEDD
substance,measurement,setting,value
ETVTLLVALKVRYRERIT (Synthetic peptide PP2Ac) [SEQ ID NO: 1],binding of SET protein to cellulose-bound PP2Ac sequence,SET protein,bound by SET protein
PSSKSTEIKWKSGKDLTKRSSQ (Synthetic peptide SET) [SEQ ID NO: 2],binding of PP2Ac protein to cellulose-bound SET sequence,PP2Ac protein,bound by PP2Ac protein
VKKKKIKAEIKI-ETVTLLVALKVRYRERIT (VKKKKIKAEIKIETVTLLVALKVRYRERIT) [Mut3DPT-PP2Ac],"apoptosis (Annexin V-FITC staining, flow cytometry)",Daudi cell line,has an apoptotic effect
same,"apoptosis (Annexin V-FITC staining, flow cytometry)",Raji cell line,has an apoptotic effect
same,"apoptosis (Annexin V-FITC staining, flow cytometry)",Jok1 cell line,has an apoptotic effect
same,"apoptosis (Annexin V-FITC staining, flow cytometry)",H1299 cell line,has apoptotic effect
same,"apoptosis (Annexin V-FITC staining, flow cytometry)",H1975 cell line,has apoptotic effect
VKKKKIKAEIKI-PSSKSTEIKWKSGKDLTKRSSQ (VKKKKIKAEIKIPSSKSTEIKWKSGKDLTKRSSQ) [Mut3DPT-SET],"apoptosis (Annexin V-FITC staining, flow cytometry)",MDA-MB231 cell line,slight apoptosis increase
